We go through four compounds from patent US20070049538A1, “METHODS FOR USING CUCURBITACIN COMPOUNDS” (SOUTH DAKOTA STATE UNIVERSITY, priority 2005, published 2007).

Entries after “also recorded” stand apart in the source; their conditions may differ.

Data set [1] can be described thus: Chromatographic hydrophobicity index (CHI) by RP-HPLC in buffered acetonitrile. It is filed as physicochemical. The arrangement: key: CHI = φ0 (isocratic hydrophobicity index), = A·tR + B; ACN % scale. The note with it: for CHIACN1: buffered acetonitrile pH 7.0, Alltima C18 250 mm, Eq. (2) from isocratic φ0; for CHIACN2: buffered acetonitrile pH 7.0, Eq. (3) calibrated against published CHI.

A short description of data set [2]: DPPH* Stable Free Radical Scavenging Assay. The settings on record: at 50 μM. As for the experimental part:
Cucurbitacin antioxidant activity was studied first by the DPPH* Stable Free Radical Scavenging Assay (Cotelle et al., Free radical Biology & Medicine 20(1): 35-43, 1996). Experimental conditions were optimized on the standard compound ascorbic acid. Data indicated 30% activity at 50 μM concentration, and 100% activity at 100 μM for ascorbic acid. While the original assay required 10 minutes incubation time for the reaction to occur, this time was increased up to 30 minutes in case cucurbitacin were reacting slower than other reagents.
For orientation: DPPH is a stable violet radical that fades when it is reduced.

The nature of data set [3]: ABTS*+ Radical Cation Decolorization Assay. The settings on record: at 50 μM, 100 μM and 1.8 mM, up to 2 hours. As for the experimental part:
Cucurbitacin B activity was monitored at 50 μM, 100 μM, and 1.8 mM. The time interval was expanded up to 2 hours in case cucurbitacin B was reacting slowly.

In data set [4] the test system is lipid peroxidation of microsomal suspension. Briefly: Microsomal Lipid Peroxidation Assay. The settings on record: at 0.1 mM, both chemical and enzymatic assays. The class given is biochemical. As for the experimental part: Cucurbitacin anti-lipid peroxidation was studied by the Microsomal Lipid Peroxidation Assay (Engineer et al., Biochemical Pharmacology 38(8): 1279-1285, 1989). Lipid peroxidation of microsomal suspension was induced both enzymatically and chemically and validated on the standard compound quercetin. […] Activity of 3 cucurbitacin analogs, B, E, and E-Me-ether was monitored at 0.1 mM indicating no inhibition in either the chemical or enzymatic assay.

In data set [5] the target is hyaluronidase (Bos taurus, UniProt Q2YDK3). Briefly: Anti-Hyaluronidase Assay. It is filed as biochemical. The note with it: up to 71.68 mM. From the text:
Cucurbitacin anti-inflammatory activity was monitored by the Anti-Hyaluronidase Assay (Facino et al., Il Farmaco 48: 1447-1461, 1993 and Linker, A., Hyaluronidase. In: Methods of enzymatic analysis. Vol. 4., Bergmeyer, H. U. (Editor), Verlag Chemie GmbH, Berlin, 256-262, 1984). This assay was validated using the standard compound phenylbutazone.

The conditions of data set [6]: in vivo; cited from earlier work.
The test system of data set [7] is HSC-T6 cells. Briefly: Serum-driven HSC-T6 proliferation, experiment 2 (24 h, starved/quiescent cells). The class given is cell-based, rat. The settings on record: HSC-T6, 24 h, starved (quiescent) cells; read-out: Experiment 2 EC50. As for the experimental part:
To overcome this problem, the amount of incubation time was increased to 24 h, and cucurbitacin activity measured on starved (Exp. 2) or proliferative (Exp. 3) cells (Table 8). Cells turned quiescent when serum was not supplemented for one day (Exp. 2). Activity of a few compounds was monitored on quiescent cells, and their activity compared to the ones measured on proliferating cells (Exp. 3).
We established several experimental conditions such as 4 hours of incubation time with cucurbitacin, and 2 day cell incubation with fresh media after challenging with cucurbitacin (Exp. 1). Other experiments involved addition of cucurbitacin for 24 hours over starved cells (Exp. 2) vs. proliferating cells (Exp. 3), and one day incubation of cells with fresh media after challenge. The 4 hour incubation period with cucurbitacin triggered anti-proliferation effect. This effect, however, was hindered by a second cycle of cell proliferation during the two-day cell growth period (see silybin, E and I glucosides, and for I-nPr). […] Because of that, the challenge time was increased to 24 hours (Exp. 2 and 3).
In experiment 3, only 40% of the cells divided. The ratio of EC50 values for exp. 2 and exp. 3 varied between 3.6 and 12.7. This may indicate differential cytotoxicity of silybin and cucurbitacin analogs over quiescent and active stellate cells. In other words, compounds show higher anti-proliferative activity on active cells than on quiescent cells.

Chain of hyaluronidase (Q2YDK3 entry or part of it): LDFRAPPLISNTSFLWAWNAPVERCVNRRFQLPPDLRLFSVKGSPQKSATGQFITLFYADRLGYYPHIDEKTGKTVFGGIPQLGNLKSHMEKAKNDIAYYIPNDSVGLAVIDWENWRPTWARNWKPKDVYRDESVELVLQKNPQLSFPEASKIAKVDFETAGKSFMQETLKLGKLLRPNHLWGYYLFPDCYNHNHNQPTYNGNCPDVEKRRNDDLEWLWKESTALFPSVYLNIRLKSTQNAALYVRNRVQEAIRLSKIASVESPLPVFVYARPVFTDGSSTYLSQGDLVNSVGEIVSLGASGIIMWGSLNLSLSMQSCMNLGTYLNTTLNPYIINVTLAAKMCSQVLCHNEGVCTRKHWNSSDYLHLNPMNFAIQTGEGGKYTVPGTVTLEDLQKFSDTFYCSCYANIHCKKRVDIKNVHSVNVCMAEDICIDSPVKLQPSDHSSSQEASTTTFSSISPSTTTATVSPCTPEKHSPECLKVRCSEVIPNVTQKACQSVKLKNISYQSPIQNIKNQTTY

As for `CC(=O)OC(C)(C)/C=C/C(=O)[C@](C)(O)[C@H]1[C@H](O)C[C@@]2(C)[C@@H]3CC=C4[C@H](C[C@H](O)C(=O)C4(C)C)[C@]3(C)C(=O)C[C@]12C` [B, cucurbitacin B], in data set [1], the CHIACN1 came to 70.93 and the CHIACN2 was 75.40. In addition, the DPPH activity result in data set [2] is “did not indicate any activity”. Besides, in data set [3], the ABTS activity result is “No activity was observed”. Further, the “inhibition of lipid peroxidation” value in data set [4] is listed as “no inhibition”. The anti-hyaluronidase activity result in data set [5] is “no activity; also recorded: did not demonstrate anti-hyaluronidase activity”. The “protective and preventive activity” value in data set [6] was “significantly reducing serum enzymes level, steatosis, inflammation, and experimental cholestasis”.

In general, EC50 refers to the midpoint of the concentration-response curve. With `CC(=O)OC(C)(C)/C=C/C(=O)[C@](C)(O)[C@H]1[C@H](O)C[C@@]2(C)[C@@H]3CC=C4[C@@H](C=C(O[C@@H]5O[C@H](CO)[C@@H](O)[C@H](O)[C@H]5O)C(=O)C4(C)C)[C@]3(C)C(=O)C[C@]12C` [E-Gluc, cucurbitacin E glucoside], in data set [1], the CHIACN1 turned out to be 53.98 and the CHIACN2 is on record as 49.13. Further, the half-maximal effective concentration (EC50) in data set [7] worked out at 20 µM.

For the compound Cucurbitacin E-Me ether, in data set [1], the CHIACN1 came out at 77.84 and the CHIACN2 amounted to 86.09. Also, the “inhibition of lipid peroxidation” value in data set [4] is “no inhibition”.

As for cucurbitacin E, in data set [1], the CHIACN1 came to 75.92 and the CHIACN2 was determined as 83.13. In data set [4], the “inhibition of lipid peroxidation” value is recorded as “no inhibition”. Besides, the “protective and preventive activity” value in data set [6] was “significantly reducing serum enzymes level, steatosis, inflammation, and experimental cholestasis”.
